Reference: paper PMC12974487, “Inhibition of FicD-mediated AMPylation and deAMPylation by isoprenoid diphosphates” (Proceedings of the National Academy of Sciences of the …, 2026)

Biological target: T1, FicD^R371S (Homo sapiens, UniProt Q9BVA6, R371S)
T1 construct: Wild-type FicD (residues 105-458) and all mutants were expressed as N-terminal 6xHis-Sumo fusions; 6xHis-Sumo (N, cleaved yes); made in house; host or cells: Rosetta(DE3) E. coli
T1 sequence (Q9BVA6 105-458 R371S): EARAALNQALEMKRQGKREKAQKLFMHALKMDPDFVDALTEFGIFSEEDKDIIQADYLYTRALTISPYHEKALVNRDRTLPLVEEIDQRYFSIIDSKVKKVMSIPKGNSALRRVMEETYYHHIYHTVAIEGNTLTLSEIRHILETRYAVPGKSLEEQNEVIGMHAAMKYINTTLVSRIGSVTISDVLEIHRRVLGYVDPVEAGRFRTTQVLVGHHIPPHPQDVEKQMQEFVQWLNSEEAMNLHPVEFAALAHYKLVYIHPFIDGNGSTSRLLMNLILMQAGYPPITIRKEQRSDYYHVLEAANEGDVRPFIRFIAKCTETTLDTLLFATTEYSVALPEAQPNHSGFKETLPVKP
Experiment: AMPylation of Δ26hBiP^T229A by pathogenic variant FicD^R371S
Format: biochemical
Details: indicated concentrations of FPP
Text: Fig. 5. Crystal structure of FPP inhibitor bound to FicD active site. […] FPP (cyan stick) and Mg^2+ (cyan sphere) in the pocket of FicD shown as APBS electrostatic surface with positive areas in blue, negative in red, and neutral in white (contour level: ±5 kBT/e) (Right). […] (C–E) AMPylation assays of Δ26hBiP^T229A in the presence of the indicated concentration of FPP using the pathogenic human variants (C) FicD^R371S, (D) FicD^R374H and (E) FicD^R374C. AMPylated BiP and Fic were quantified by immunodetection, and total BiP was quantified by CBB. […]
Isothermal Titration Calorimetry
Proteins were dialyzed against 25mM HEPES pH 7.4/100mM KCl/10% glycerol prior to titration. […]
MgCl2 was added to […]
proteins to a final concentration of 4mM. ITC experiments were performed in a Micro-Cal PEAQ-ITC (Malvern Panalytical, Worcestershire, UK) calorimeter with a stirred 206.2 μL reaction cell held at 20 °C. 250μM FPP was titrated into 25uM Δ104hFicL258D with 750rpm stirring. The first injection was 0.5 μL, followed by twenty 1.9 μL injections. […]
Thermogram and binding figures were plotted in
For AMPylation assays with FicD and BiP, Δ104FicDWT and Δ26hBiPT229A were combined at a ratio of 1:80 in buffer containing 25mM HEPES pH 7.4, 100mM KCl, 5mM MgCl2, 500μM ATP, 1mM DTT, and small molecule where indicated. Assays with Δ104FicDWT were incubated for 1 hour. […]

`CC(C)=CCC/C(C)=C/CC/C(C)=C/COP(=O)(O)OP(=O)(O)O` [FPP, farnesyl-pyrophosphate] was tested, and the “FPP inhibition of FicD^R371S AMPylation activity” value was “total loss of FPP inhibition”.
